# Source: patent publication US6133311A, “Method for preventing or treating elevated blood lipid level-related diseases by administering natural phenolic compounds” (priority 1998, dated 2000)
# What was measured:
# [1] = plasma cholesterol, HDL-cholesterol and neutral lipid levels in rats fed a high-cholesterol diet; format: in vivo, Sprague-Dawley rats; details: six weeks; for HDL-C/Total-C ratio higher than in the control group / neutral lipid content lower than in the Control group / total plasma cholesterol level lower than in the Control group: 0.1% in diet; for HDL-C / Total-C / HDL-C (HDL-cholesterol) / TG (triglyceride) / Total-C (total cholesterol): 1% cholesterol plus 0.1% compound in diet; for HDL-C / Total-C: Control 28; for HDL-C (HDL-cholesterol): Control 38 ± 2; for TG (triglyceride): Control 98 ± 5; for Total-C (total cholesterol): Control 135 ± 6
# Excerpt: Effect of Tannin, Gallic acid or Ellagic acid on Plasma Cholesterol, HDL-Cholesterol and Neutral Lipid Levels
# (Step 1) Administration of tannin or gallic acid to rats
# 30 three-week-old white Sprague-Dawley rats (Taihan laboratory animal center, Korea), each weighing about 90 to 110 g, were evenly divided into three dietary groups by a randomized block design. The rats of the three groups were fed with three different high-cholesterol diets, i.e., AIN-76 laboratory animal diet (ICN Biochemicals, Cleveland, Ohio, U.S.A.) containing 1% cholesterol (Control group), 1% cholesterol plus 0.1% tannin group (tannin group) and 1% cholesterol plus 0.1% gallic acid, respectively.
# The rats were allowed to feed freely on the specified diet together with water for six weeks, the ingestion amount was recorded daily and the rats were weighed every 7 days, and then the record was analyzed.
# (Step 2) Determination of total cholesterol, HDL-cholesterol and neutral lipid content in blood
# The effects of administering tannin or gallic acid to rats on the plasma cholesterol and neutral lipid contents were determined as follows.
# The rats of the three dietary groups obtained in Step 1 were sacrificed and blood samples were taken therefrom. The blood was allowed to stand for 2 hours and centrifuged at 3,000 rpm for 15 minutes and the supernatant was separated and stored in a deep freezer before use. The chemical analysis of blood was carried out by employing a blood chemical analyzer (CIBA Corning 550 Express, USA) to determine the changes in total cholesterol, HDL-cholesterol and triglyceride levels.
# HMG-CoA reductase = biological target: T1, HMG-CoA reductase (Rattus norvegicus, UniProt P51639); test: HMG-CoA reductase inhibition in liver microsomes of fed rats; format: biochemical; details: liver microsomes of rats fed 0.1% compound, vs Control
# T1 construct: from tissue; host or cells: rat liver microsomes
# T1 sequence (P51639 1-887): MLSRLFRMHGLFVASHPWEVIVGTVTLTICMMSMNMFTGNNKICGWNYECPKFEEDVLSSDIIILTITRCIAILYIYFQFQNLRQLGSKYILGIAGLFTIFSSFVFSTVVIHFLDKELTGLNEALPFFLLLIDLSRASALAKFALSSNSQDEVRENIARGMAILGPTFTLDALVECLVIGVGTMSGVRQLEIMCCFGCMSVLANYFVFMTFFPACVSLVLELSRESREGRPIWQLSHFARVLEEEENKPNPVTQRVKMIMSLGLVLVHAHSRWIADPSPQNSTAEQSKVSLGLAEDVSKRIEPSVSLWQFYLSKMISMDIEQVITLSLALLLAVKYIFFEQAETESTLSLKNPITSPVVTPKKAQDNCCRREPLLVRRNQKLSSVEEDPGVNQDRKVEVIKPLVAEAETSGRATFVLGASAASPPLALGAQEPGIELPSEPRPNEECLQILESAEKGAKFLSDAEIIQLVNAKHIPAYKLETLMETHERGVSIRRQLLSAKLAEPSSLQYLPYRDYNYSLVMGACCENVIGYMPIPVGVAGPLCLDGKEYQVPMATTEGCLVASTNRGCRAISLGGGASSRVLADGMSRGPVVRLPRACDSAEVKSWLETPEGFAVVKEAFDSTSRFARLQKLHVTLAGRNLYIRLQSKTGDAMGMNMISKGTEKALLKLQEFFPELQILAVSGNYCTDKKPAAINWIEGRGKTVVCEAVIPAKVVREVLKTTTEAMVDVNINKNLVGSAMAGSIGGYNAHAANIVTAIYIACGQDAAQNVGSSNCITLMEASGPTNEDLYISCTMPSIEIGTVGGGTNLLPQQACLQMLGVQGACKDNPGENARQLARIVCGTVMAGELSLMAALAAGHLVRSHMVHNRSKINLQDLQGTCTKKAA
# Method: Activity of tannin or gallic acid in HMG-CoA Reductase Inhibition
# In order to determine the activity of HMG-CoA reductase, Hulcher's method was employed after some modification (see J. Lipid Res., 14, 625-641 (1973)). In this method, the concentration of the coenzyme-A (CoA-SH), which is produced when HMG-COA is reduced to a mevalonate salt by the action of HMG-COA reductase, is determined by spectroscopy and the activity of HMG-CoA reductase is calculated therefrom.
# (Step 1) Preparation of microsomes
# 3 g of liver tissue taken from each group of rats of Example 2 was washed successively with 100 ml of a cold Saline (0.15M NaCl) and 100 ml of a cold buffer solution A (0.1M triethanolamine, HCl/0.2M EDTA/2 mM dithiothreitol (DTT)). The cold buffer solution A was added to the liver tissue in an amount of 2 ml per 1 g of the liver tissue and the mixture was homogenized with a homogenizer. […]
# Then, the reactant was mixed with 20 μl of DTNB buffer solution (3mM DTNB/0.1M triethanolamine/0.2M EDTA, pH 7.4) and the absorbance of the mixture was determined at 412 nm to calculate the amount of CoA-SH (activity of HMG-COA reductase).
# The extent of inhibition of HMG-CoA reductase activity by tannin and gallic acid were calculated based on the above result.
Compound,HDL-C/Total-C ratio higher than in the control group [1],neutral lipid content lower than in the Control group [1],total plasma cholesterol level lower than in the Control group [1],HDL-C / Total-C [1],HDL-C (HDL-cholesterol) [1],TG (triglyceride) [1],Total-C (total cholesterol) [1],Inhibition of HMG-CoA reductase activity (HMG-CoA reductase)
"O=C(O)c1cc(O)c(O)c(O)c1 [Gallic acid, gallic acid]",21%,22%,31%,34%,32 ± 3 mg/dL,77 ± 4 mg/dL,93 ± 5 mg/dL,6.0%
tannin,54%,21%,35%,43%,37 ± 2 mg/dL,76 ± 3 mg/dL,88 ± 4 mg/dL,23.5%
